Laboratory results as given in US7527934B2, “Labeled substrate conjugates for identifying enzyme inhibitors” (priority 2004, dated 2009).
Like-named read-outs stand apart in the source and are kept apart here.

Experiments:
[1] = molecular target: Clostridium perfringens neuraminidase; type: biochemical; details: for IC50: pH 6.5, read-out: Solution phase IC50, Clostridium perfringens
[2] = molecular target: T1, Salmonella typhimurium neuraminidase (Salmonella typhimurium, UniProt P29768); test: biochemical; type: biochemical
T1 construct: purchased Sigma

[3] = molecular target: T2, Vibrio cholerae neuraminidase (Vibrio cholerae serotype O1, UniProt P0C6E9); test: biochemical; type: biochemical
T2 construct: purchased Sigma

[4] = tested on: α2,3-sialyltransferase; test: Substrate recognition by sialyltransferase (FRET donor/acceptor); type: biochemical; details: acceptor 0.2 mM, donor 0.1 mM, sialyltransferase 0.2 mU, FIG. 15
[5] = molecular target: T3, α2,6-sialyltransferase (Rattus norvegicus, UniProt P13721); test: as above; type: biochemical; design: purchased Calbiochem; details: acceptor 0.2 mM, donor 0.1 mM, sialyltransferase 0.2 mU, FIG. 15
T3 sequence (P13721 1-403): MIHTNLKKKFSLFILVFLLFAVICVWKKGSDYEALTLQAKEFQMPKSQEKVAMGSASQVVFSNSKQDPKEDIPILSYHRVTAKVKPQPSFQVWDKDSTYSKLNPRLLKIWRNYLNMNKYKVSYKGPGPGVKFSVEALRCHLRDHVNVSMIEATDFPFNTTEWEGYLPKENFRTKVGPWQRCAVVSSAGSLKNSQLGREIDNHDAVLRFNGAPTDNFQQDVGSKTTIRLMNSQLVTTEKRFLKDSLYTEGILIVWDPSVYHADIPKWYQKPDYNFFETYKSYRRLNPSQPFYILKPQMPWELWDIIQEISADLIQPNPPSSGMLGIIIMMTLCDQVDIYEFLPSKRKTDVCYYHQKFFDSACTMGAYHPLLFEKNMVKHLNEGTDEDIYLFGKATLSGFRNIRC

[6] = molecular target: T3, α2,6-sialyltransferase; details: read-out: KM value; literature (Gross et al. 1989); cited from earlier work
[7] = molecular target: T3, α2,6-sialyltransferase; test: Sialyltransferase competitive assay; type: biochemical; design: purchased Calbiochem
[8] = molecular target: T1, Salmonella typhimurium neuraminidase; details: value in brackets marked lit; read-out: Solution phase IC50, Salmonella typhimurium, literature value; cited from earlier work

T1 sequence (P29768 whole entry): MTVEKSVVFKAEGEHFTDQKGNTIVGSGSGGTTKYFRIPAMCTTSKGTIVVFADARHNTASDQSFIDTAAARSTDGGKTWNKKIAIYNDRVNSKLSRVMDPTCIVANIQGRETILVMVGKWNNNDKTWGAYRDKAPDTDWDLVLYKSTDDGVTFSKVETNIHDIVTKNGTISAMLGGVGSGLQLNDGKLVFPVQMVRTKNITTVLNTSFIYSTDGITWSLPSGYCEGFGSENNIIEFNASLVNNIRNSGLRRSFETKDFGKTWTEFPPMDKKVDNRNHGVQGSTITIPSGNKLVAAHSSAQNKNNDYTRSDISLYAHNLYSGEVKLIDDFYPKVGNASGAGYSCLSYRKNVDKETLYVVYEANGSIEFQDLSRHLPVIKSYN
T2 sequence (P0C6E9 25-781 limits assumed): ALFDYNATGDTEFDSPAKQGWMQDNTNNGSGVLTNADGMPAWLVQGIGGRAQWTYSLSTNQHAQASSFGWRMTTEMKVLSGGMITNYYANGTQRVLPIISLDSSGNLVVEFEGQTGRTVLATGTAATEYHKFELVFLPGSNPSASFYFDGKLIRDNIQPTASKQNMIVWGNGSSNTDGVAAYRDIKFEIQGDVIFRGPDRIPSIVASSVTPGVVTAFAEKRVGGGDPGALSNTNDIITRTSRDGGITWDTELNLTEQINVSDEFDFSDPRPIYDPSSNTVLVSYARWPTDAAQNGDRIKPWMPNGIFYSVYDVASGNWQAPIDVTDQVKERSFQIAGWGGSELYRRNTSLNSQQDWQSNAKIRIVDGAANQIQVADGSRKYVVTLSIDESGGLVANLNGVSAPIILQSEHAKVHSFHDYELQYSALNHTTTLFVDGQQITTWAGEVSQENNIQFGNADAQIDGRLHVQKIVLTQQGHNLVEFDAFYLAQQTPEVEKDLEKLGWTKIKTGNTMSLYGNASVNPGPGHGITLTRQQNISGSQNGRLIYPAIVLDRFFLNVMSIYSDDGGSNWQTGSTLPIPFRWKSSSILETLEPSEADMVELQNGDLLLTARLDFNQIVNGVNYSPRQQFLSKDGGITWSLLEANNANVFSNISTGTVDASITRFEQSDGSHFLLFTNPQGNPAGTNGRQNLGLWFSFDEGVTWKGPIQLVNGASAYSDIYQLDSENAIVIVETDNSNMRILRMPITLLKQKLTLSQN

Compound | IC50 [1] | IC50 [2] | IC50 [3] | other results
CC(=O)NC1C(NC(=N)N)C=C(C(=O)O)OC1[C@H](OC(N)=O)[C@H](O)CO (stereo partly shown) | > 2000 µM | > 2000 µM | 250 µM | –
CC1=NC2C(O)C=C(C(=O)O)OC2C(CC(=O)N[C@@H](C(N)=O)C2CCCCC2)O1 (stereo partly shown) | 1600 µM | > 2000 µM | > 2000 µM | –
CC(=O)NC1C(NC(=N)N)C=C(C(=O)O)OC1[C@H](O)[C@H](O)CO (stereo partly shown) [4-guanidino-2-deoxy-2,3-didehydro-N-acetylneuraminic acid] | – | > 2000 µM | 200 µM | Inhibition of Vibrio cholerae neuraminidase [3]: inhibitor
CC(=O)N[C@H]1[C@H](OCCNC(=O)[C@@H](N)Cc2ccc(O)c([N+](=O)[O-])c2)O[C@H](CO)[C@@H](O[C@@H]2O[C@H](CO)[C@H](O)[C@H](O)[C@H]2O)[C@@H]1O [acceptor 69, 2-(3-Nitro-L-tyrosyl-amide)ethyl β-D-galactopyransyl-(1→4)-O-2-acetamido-2-deoxy-β-D-glucopyranoside] | – | – | – | Substrate recognition by α2,3-sialyltransferase [4]: good substrates; Substrate recognition by α2,6-sialyltransferase [5]: good substrates
CC(=O)NC1C(O)CC(O)(C(=O)O)OC1[C@H](O)[C@H](O)CO (stereo partly shown) | > 2000 µM | > 2000 µM | > 2000 µM | –
CC(=O)NC1C(O)CC(OP(=O)(O)OC[C@H]2O[C@@H](n3ccc(N)nc3=O)[C@@H](O)C2O)(C(=O)O)OC1[C@H](O)[C@H](O)CO (stereo partly shown) [CMP-Neu5Ac, cytidine monophosphate N-acetylneuraminic acid] | – | – | – | Km [6]: 45 µM; IC50 [7]: 85 µM
NC(=O)C(Cc1ccc(O)c([N+](=O)[O-])c1)NC(=O)Cc1cc(=O)oc2cc(O)ccc12 (stereo not shown) [Compound 41, 3-(4-Hydroxy-3-nitro-phenyl)-2-[2-(7-hydroxy-2-oxo-2H-chromen-4-yl)-acetylamino]-propionamide] | – | – | – | melting point: 203 °C
CC(=O)NC1C(O)C=C(C(=O)O)OC1[C@H](O)[C@H](O)CO (stereo partly shown) [2-deoxy-2,3-dehydro-N-acetylneuraminic acid] | 4 µM | 310 µM | – | Inhibition of Clostridium perfringens neuraminidase [1]: good inhibitor; Inhibition of Salmonella typhimurium neuraminidase [2]: good inhibitor; Inhibition of Vibrio cholerae neuraminidase [3]: good inhibitor; IC50 [8]: 350 µM
CC(=O)NC1C(N)C=C(C(=O)O)OC1[C@H](O)[C@H](O)CO (stereo partly shown) | > 2000 µM | > 2000 µM | > 2000 µM | –
CMP-5-(7-hydroxy-4-coumarinyl-acetamido)-NeuAc [donor 55] | – | – | – | Substrate recognition by α2,3-sialyltransferase [4]: good substrates; Substrate recognition by α2,6-sialyltransferase [5]: good substrates
NC(=O)C(Cc1ccc(O)c([N+](=O)[O-])c1)NC(=O)CCC(=O)NCCOCCOCCNC(=O)Cc1cc(=O)oc2cc(O)ccc12 (stereo not shown) [Compound 42, N-[1-Carbamoyl-2-(4-hydroxy-3-nitro-phenyl)-ethyl]-N′-[2-(2-{2-[2-(7-hydroxy-2-oxo-2H-chromen-4-yl)-acetylamino]-ethoxy}-ethoxy)-ethyl]-succinamide] | – | – | – | melting point: 115 °C
N[C@@H](Cc1ccc(O)c([N+](=O)[O-])c1)C(=O)NCCO[C@@H]1O[C@H](CO)[C@@H](O[C@@H]2O[C@H](CO)[C@H](O)[C@H](O)[C@H]2O)[C@H](O)[C@H]1O [acceptor 64, 2-(3-Nitro-L-tyrosyl-amide)ethyl β-D-galactopyransyl-(1→4)-O-β-D-glucopyranoside] | – | – | – | Substrate recognition by α2,3-sialyltransferase [4]: poor substrate recognition; Substrate recognition by α2,6-sialyltransferase [5]: poor substrate recognition
